For data set [1], the system named is C. elegans strain glp-4;sek 1. The experiment in a line: Toxicity of peptides in uninfected C. elegans. Type of data set: in vivo, Caenorhabditis elegans. The settings on record: worms grown four days with peptide; D-RR4 and colistin at 8 × MIC. As to the method:
To test the efficacy of the synthetic peptides to protect against infections in vivo, we utilized a C. elegans model of bacterial infection. This model has been used extensively for early-stage evaluation of promising antimicrobials, [35], [36]. Initially, the lethal dose of D-RR4 against uninfected nematodes was determined.
(A) Evaluation of toxicity of peptides in Caenorhabditis elegans. C. elegans strain glp-4;sek 1 was grown for four days in the presence of peptides at different concentrations. Worms were monitored daily and the live worms were counted. Results are expressed as a Kaplan-Meier survival curve. (B) Evaluation of antimicrobial activity of peptides to reduce the bacterial CFU inside infected Caenorhabditis elegans. C. elegans strain glp-4; sek 1 were infected with P. aeruginosa PAO1, colistin-resistant P. aeruginosa 1109, or A. baumannii ATCC BAA-1605. […] After treatment, worms were lysed and bacteria were counted. One asterisk (*) indicates significant difference with the negative control. Two asterisks (**) indicates significant difference with the monotherapy treatment (P < 0.05). Results are expressed as means from three biological replicates ± standard deviation. (C) Efficacy of peptides in a Caenorhabditis elegans model of bacterial infection. […] Worms were monitored daily and the live worms were counted. Results are expressed as a Kaplan-Meier survival curve. C. elegans receiving no treatment served as a negative control.

For data set [2], the system named is P. aeruginosa and A. baumannii isolates. The source says:
(§1) The broth microdilution technique was utilized to assess the MIC of designed peptides according to the guidelines of the Clinical and Laboratory Standards Institute (CLSI)[37].

For data set [3], the system named is colistin-resistant P. aeruginosa isolated from cystic fibrosis patients. The settings on record: colistin-resistant isolated from cystic fibrosis patients.
Text: as §1

For data set [4], the system named is human keratinocytes (HaCaT cells). In words: Cytotoxicity, MTS assay. The settings on record: 24 h. As to the method:
(§2) A significant limitation for translating AMPs into clinical applications is their toxicity to host (mammalian) cells. Herein, we evaluated the cytotoxic effects of our peptide constructs against murine macrophages (J774.1A) and human keratinocytes (HaCaT cells), via the MTS assay.
(§3) The peptides were assayed for potential in vitro toxicity against human keratinocytes (HaCaT) and murine macrophage cells (J774A.1), as described before, with the following modifications. Cells were treated with peptides at different concentrations for 24 hours. The therapeutic index of the peptides was calculated as the ratio of mammalian EC50 (the concentration of peptide that inhibited growth of 50% of the mammalian cells) to the MIC50 of peptides against bacteria.
A general note: Formazan colour is commonly taken as a measure of viable cells.

The subject of data set [5] is murine macrophages (J774.1A). The experiment in a line: Cytotoxicity, MTS assay. The following applies: 24 h. As to the method:
as §2, §3

The test system of the next data set is human red blood cells. In words: Hemolysis assay. The settings on record: for HC50: red cells of human. Type of data set: cell-based. As to the method: Next, we assessed the hemolytic activity of the peptides on human red blood cells (RBCs).
Peptides were assayed for hemolytic activity against human red blood cells, as described previously.

The subject of data set [6] is LPS-induced activation of the LAL enzyme (Limulus amoebocyte lysate). The experiment in a line: Binding of peptides to lipopolysaccharide (LAL assay). It counts as biochemical. The settings on record: one EU of LPS, 37 °C, 30 minutes. As to the method:
(§4) Figure 3 Ability of peptides to neutralize LPS and reduce inflammatory cytokines expression. (A) LPS binding activity of peptides. Peptides at different concentrations were incubated with one endotoxin unit (EU) of LPS at 37 °C for 30 minutes. […] The binding of peptides with LPS is expressed as percent change relative to the untreated samples. (B) Anti-inflammatory effect of peptides on LPS-stimulated macrophages. J774A.1 cells were stimulated with LPS (150 ng/mL final concentration) in the presence of different concentrations of peptides. Cells stimulated with LPS alone and untreated cells served as controls. Cells were incubated for six hours at 37 °C before the supernatant from each treatment group was collected. Detection of tumor necrosis factor-α (TNF-α) and interleukin-6 (IL-6) in supernatants was determined using ELISA. Cytokine levels are expressed as percent change relative to the LPS-stimulated control. Statistical analysis was calculated using one-way ANOVA, with post hoc Tukey’s multiple comparisons test. P < 0.05 was considered significant. One asterisk (*) indicates significant difference with the negative control.
To determine the peptides’ ability to bind to LPS, a Limulus amoebocyte lysate (LAL) kit (Genscript, USA Inc.) was utilized, as described in previous reports. The peptides were dissolved in pyrogen-free water and serially diluted in the same solvent. The peptides were then incubated with one endotoxin unit (EU) of LPS at 37 °C for 30 minutes in order to permit the peptides to bind LPS. The reaction mixture (50 μL) was added to 50 μL of LAL reagent, and further incubated for 10 minutes. Next, 100 μL of LAL chromogenic substrate was added. The mixture was incubated at 37 °C for six minutes. The optical density (at 545 nm) was determined using a microplate reader. Colistin was used as a positive control. The binding of peptides with LPS was expressed as the percent change relative to the untreated control.

The next data set deals with IL-6. The experiment in a line: Anti-inflammatory effect on LPS-stimulated macrophages, ELISA. It counts as cell-based, murine. The settings on record: J774A.1 cells, LPS 150 ng/mL, six hours. How it is done: as §4
(§5) To assess the anti-inflammatory effect of our peptides on LPS-stimulated macrophages, J774A.1 cells were seeded and incubated as described above (for toxicity assessment). Next, the cells were stimulated with LPS (150 ng/ml final concentration) in the presence of different concentrations of peptides (RR and D-RR4). Cells stimulated with LPS alone and untreated cells served as controls. Cells were incubated for six hours at 37 °C and the supernatant from each treatment was collected and stored at −20 °C until use. Tumor necrosis factor-α (TNF-α) and interleukin-6 (IL-6) present in the supernatant was quantified using ELISA, as described previously. Cytokine levels were presented as the percent change relative to the LPS-stimulated control, using triplicate samples for each treatment condition.
(ELISA stands for enzyme-linked immunosorbent assay.)

Another data set has as its system TNF-α. The description is as above. The following applies: J774A.1 cells, LPS 150 ng/mL, six hours. It counts as cell-based, murine. How it is done:
as §4, §5

Data set [7] relates to P. aeruginosa PAO1 biofilm. In words: Disruption of established biofilms, microtiter dish crystal violet assay. It counts as cell-based. The settings on record: 32 × MIC, mature (24 hour) biofilm, 24 hours at 37 °C, crystal violet OD 595 nm. As to the method: Figure 1 Efficacy of peptides on established biofilms of P. aeruginosa PAO1 and A. baumannii ATCC BAA-1605. […] After incubation, wells were washed and biofilms were stained with 0.5% (w/v) crystal violet for 30 minutes. The dye was solubilized with ethanol (95%) and the optical density (595 nm) of the biofilm mass was measured. Experiments were repeated twice independently and the average values are reported.
To examine the peptides’ ability to disrupt bacterial biofilms, the microtiter dish biofilm formation assay was employed[41]–[43].

Seven compounds from publication PMC5537347, “A short D-enantiomeric antimicrobial peptide with potent immunomodulatory and antibiofilm activity against multidrug-resistant Pseudomonas aeruginosa and Acinetobacter baumannii” (Scientific Reports, 2017) can be followed below.

Structures are written as SMILES. ≈ marks a conversion by molar mass, not a printed value. Read-outs that look alike come from different tables or passages of the source. Peptide text beside a SMILES is read from it. Some results are limits rather than exact numbers.

The term MIC90 denotes the lowest concentration that inhibits either 90% of growth or 90% of the strains tested, depending on the study. In general, MIC50 refers to the lowest concentration that inhibits either 50% of growth or 50% of the strains tested, depending on the study. High values mean lower susceptibility, low ones higher susceptibility. Broadly, the MIC is the least concentration at which growth counts as inhibited. In general, EC50 refers to the concentration needed to bring the measured effect to its halfway point. The low end stands for greater potency, the high end for weaker potency. By HC50 is commonly meant the concentration giving 50% haemolysis. A lower HC50 goes with stronger haemolysis.

Consider `CC[C@H](C)[C@H](NC(=O)CN)C(=O)NCC(=O)N[C@@H](C)C(=O)N[C@H](C(=O)N[C@@H](CC(C)C)C(=O)N[C@@H](CCCCN)C(=O)N[C@H](C(=O)N[C@@H](CC(C)C)C(=O)N[C@H](C(=O)N[C@H](C(=O)NCC(=O)N[C@@H](CC(C)C)C(=O)N1CCC[C@H]1C(=O)N[C@@H](C)C(=O)N[C@@H](CC(C)C)C(=O)N[C@H](C(=O)N[C@@H](CO)C(=O)N[C@@H](Cc1c[nH]c2ccccc12)C(=O)N[C@H](C(=O)N[C@@H](CCCCN)C(=O)N[C@@H](CCCNC(=N)N)C(=O)N[C@@H](CCCCN)C(=O)N[C@@H](CCCNC(=N)N)C(=O)N[C@@H](CCC(N)=O)C(=O)N[C@@H](CCC(N)=O)C(N)=O)[C@@H](C)CC)[C@@H](C)CC)[C@@H](C)O)[C@@H](C)O)C(C)C)C(C)C` [Melittin], for which the “toxicity to uninfected worms” value in [1] is recorded as “completely killed C. elegans after 3 days”.
Regarding `CC[C@H](C)[C@H](NC(=O)[C@H](CCCCN)NC(=O)[C@H](CCCCN)NC(=O)[C@H](Cc1c[nH]c2ccccc12)NC(=O)[C@@H](NC(=O)[C@H](CCCCN)NC(=O)[C@@H](NC(=O)[C@H](CCCNC(=N)N)NC(=O)[C@H](CCCNC(=N)N)NC(=O)[C@H](CCCCN)NC(=O)[C@@H](N)Cc1c[nH]c2ccccc12)[C@@H](C)CC)[C@@H](C)CC)C(=O)N[C@@H](CCCNC(=N)N)C(=O)O` [RR1] (H-WKRRIKIWKKIR-OH; N-terminus and C-terminus assumed), in data set [2], the MIC90 is listed as over 256 µM and the “MIC against all tested bacterial strains” value was over 256 µM. Further, in [2] (MIC that inhibited growth of 50% of all isolates (Table 2)), the MIC50 is reported as over 256 µM. In data set [3], this compound displayed an MIC of over 128 µM, an MIC50 of over 128 µM and an MIC90 of over 128 µM. The compound also returned an EC50 in [4] of over 256 µM. Besides, the EC50 in data set [5] was over 256 µM. The compound further registered a concentration for 50% haemolysis (HC50) in the data set with human red blood cells of over 256 µM.
Consider `CC[C@H](C)[C@H](NC(=O)[C@H](Cc1c[nH]c2ccccc12)NC(=O)[C@H](CCCCN)NC(=O)[C@H](CCCCN)NC(=O)[C@@H](NC(=O)[C@H](CCCNC(=N)N)NC(=O)[C@H](CCCNC(=N)N)NC(=O)[C@@H](NC(=O)[C@@H](N)Cc1c[nH]c2ccccc12)[C@@H](C)CC)[C@@H](C)CC)C(=O)N[C@@H](CCCNC(=N)N)C(=O)N[C@@H](CCCNC(=N)N)C(=O)N[C@H](C(=O)N[C@@H](Cc1c[nH]cn1)C(=O)N[C@@H](CCCCN)C(=O)O)C(C)C` [RR2] (H-WIRRIKKWIRRVHK-OH; N-terminus and C-terminus assumed), for which, in [2], the MIC50 is 4 µM (≈ 7.9 µg/mL) and the MIC90 came to 8 µM (≈ 15.8 µg/mL). In data set [3], this compound returned an MIC50 of 32 µM (≈ 63.2 µg/mL) and an MIC90 of 32 µM (≈ 63.2 µg/mL). In data set [4], the EC50 turned out to be 64 µM. The compound further had an EC50 in data set [5] of 128 µM. Besides, in the data set with human red blood cells, the “Therapeutic index (TI) RBCs” value amounted to 64 and the HC50 stood at 256 µM.
As to `CC[C@H](C)[C@H](NC(=O)[C@H](CCCNC(=N)N)NC(=O)[C@H](CCCNC(=N)N)NC(=O)[C@H](CC(C)C)NC(=O)[C@@H](N)Cc1c[nH]c2ccccc12)C(=O)N[C@@H](CCCCN)C(=O)N[C@@H](C)C(=O)N[C@@H](Cc1c[nH]c2ccccc12)C(=O)N[C@@H](CC(C)C)C(=O)N[C@@H](CCCNC(=N)N)C(=O)N[C@@H](CCCNC(=N)N)C(=O)N[C@@H](CCCCN)C(=O)N[C@@H](CCCNC(=N)N)C(=O)N[C@@H](CCCCN)C(=O)O` [RR3] (H-WLRRIKAWLRRKRK-OH; N-terminus and C-terminus assumed), in [2], the MIC50 was 8 µM (≈ 15.7 µg/mL) and the MIC90 was 16 µM (≈ 31.5 µg/mL). For the same compound, in data set [3], the MIC50 came to 16 µM (≈ 31.5 µg/mL) and the MIC90 was found to be 32 µM (≈ 62.9 µg/mL). In data set [4], the concentration for a half-maximal effect (EC50) is 128 µM. The compound further registered an EC50 in [5] of 128 µM. In the data set with human red blood cells, the “Therapeutic index (TI) RBCs” value came out at 64 and the HC50 is on record as over 256 µM.
For `CC[C@H](C)[C@H](NC(=O)[C@H](CCCNC(=N)N)NC(=O)[C@H](CCCNC(=N)N)NC(=O)[C@H](CC(C)C)NC(=O)[C@@H](N)Cc1c[nH]c2ccccc12)C(=O)N[C@@H](CCCCN)C(=O)N[C@@H](C)C(=O)N[C@@H](Cc1c[nH]c2ccccc12)C(=O)N[C@@H](CC(C)C)C(=O)N[C@@H](CCCNC(=N)N)C(=O)N[C@@H](CCCNC(=N)N)C(=O)O` [RR] (H-WLRRIKAWLRR-OH; N-terminus and C-terminus assumed), the “inhibition of LPS-induced activation of the LAL enzyme” value in data set [6] (5 µM peptide) was 21.3%; in data set [6] (10 µM peptide), 43.2%; in [6] (15 µM peptide), 59.6%; in data set [6] (20 µM peptide), 82.4%. Further, the “decrease of IL-6 production” value with IL-6 (10 µM) worked out at 75.4%; in the data set with IL-6 (20 µM), 96.5%. The “decrease of TNF-α production” value is on record as 24.4% with TNF-α (10 µM) and 84.0% in the data set on TNF-α (20 µM).
In turn, `CNC(C)C1CCC(N)C(OC2C(N)CC(N)C(OC3OCC(C)(O)C(NC)C3O)C2O)O1` (stereo not drawn) [gentamicin] had a biofilm mass disrupted in [7] of 50%.
Same read-out and setting: for `NC[C@H]1O[C@H](O[C@H]2[C@H](O)[C@@H](O[C@H]3O[C@H](CO)[C@@H](O)[C@H](N)[C@H]3O)[C@H](N)C[C@@H]2N)[C@H](N)C[C@@H]1O` [tobramycin] the value was 50%.
